Test results: patent US11903992B2, “Composition comprising lidocaine, l-carnosine and dexpanthenol” (Cellix Bio Private Limited, priority 2021, dated 2024)

Key:
[1] = Stability observations during development of the formulation; format: physicochemical; conditions: during development of the oral rinse formulation
Excerpt: In an embodiment, the composition is formulated as an oral rinse formulation. It could also be noted during development of the formulation that L-Carnosine tends to increase the pH of the composition to about 8.5, which tend to increase the degradation of lidocaine. […] During the experimentation, it could be noted that presence of a buffer (e.g. a citrate buffer) and an anti-oxidant (e.g. sodium metabisulfite) in the composition, while maintaining pH of the resultant composition/formulation around 6.5±1 (i.e. ranging from about 5.5 to about 7.5), preferably at 6.5±0.5 and more preferably, at 6.5±0.2 affords dramatic improvement in the shelf life of the composition/formulation.

[2] = pH of the formulation (pH meter); format: physicochemical; conditions: during development of the formulation; tends to increase degradation of lidocaine

| stability observation of the ingredient [1] | pH of the composition as increased by L-Carnosine [2] | Structure (SMILES) |
| --- | --- | --- |
| requires neutral pH for stability | – | CC(C)(CO)[C@@H](O)C(=O)NCCCO [Dexpanthenol] |
| sensitive to oxygen tend to degrade | about 8.5 | NCCC(=O)N[C@@H](Cc1cnc[nH]1)C(=O)O [L-Carnosine] |
